Measured values: US20160279042A1, “Dental Anti-Hypersensitivity Composition and Method” (The Research Foundation for the State University of New York, priority 1999, published 2016)

Tests used:
[1] = Hydraulic conductance of dentine discs (Greenhill and Pashley device), simulation of dentinal tubule plugging; conditions: for Hydraulic conductance, effect in words: summary of Table 1
Description: A device developed by Greenhill and Pashley (J. Dental Research, 60:686-698, 1981) that enables simulation of dentinal tubule plugging in vivo was used to assess the effectiveness of the invention. Dentine discs that varied in thickness from 0.6 to 0.8 mm were cut with a Buhler Isomet saw from extracted caries-free molar teeth. They were then etched with 6% citric acid for two minutes to remove the smear layer and stored in 70% ethanol until used. A disc was mounted in the chamber of the apparatus with occlusal side facing upwards. The occlusal side is determined by passing light through a plastic grid beneath the section and observing the section with a dissecting microscope. The tubules appear further apart with the occlusal side up because of the lower tubular density of the dentine occlusally (Walton et al., J. Dental Research 55:639-642, 1976). Hydraulic conductance of fluid through the discs was determined as described by Greenhill and Pashley, supra.
Fluid containing levels of ions present in serum (Merck Manual, 1972) was used to perfuse the disc. Their concentrations in mM were as follows: Na-140.5, K-4.31, Ca-2.5, Mg-1.0, P-1.3. The pH of this solution is raised to 7.0 with sodium hydroxide. The solution was filtered through a […] (Millipore Corp., Marlborough, Mass. 01752) prior to use to remove any bacteria present. This solution is called artificial ionic dentinal fluid (AIDF). Hydrostatic pressure was created by a fluid reservoir leading via a glass capillary tube into the pulpal side of the chamber at a level 30 cm above that of the surface of the horizontally positioned disc. The distance traveled by an air bubble positioned in the AIDF in the capillary tubing between this pressure head and the pulpal side of the disc in a fixed period of time was converted to hydraulic conductance values in ml cm^−1 min^−1 cm H20^−1.
First, […] of AIDF was applied to the upward facing occlusal side of the section and AIDF was allowed to flow through the disc from the pulpal side for a period of five minutes. The distance that the air bubble moved inside the capillary on the pulpal side of the chamber was measured so that the rate of fluid movement through the disc could be calculated and converted to hydraulic conductance values. This procedure was repeated two more times or until a uniform flow rate was achieved on three consecutive runs. […] Next, the mixture was removed with a pipette, washed three times with 400 μl of deionized water and replaced with AIDF. The AIDF was allowed to flow through the dentine slice and hydraulic conductance readings were made at selected times up to 90 minutes.

[2] = Titration of artificial dentinal fluid, aggregation measured by absorbance; type: physicochemical; conditions: pH of 8.5 and above
Procedure: In order to determine the conditions that promote intrinsic plug formation, we performed the following experiments. We prepared a solution comprised of the ions present in dentinal fluid (which acted as artificial dentinal fluid) and progressively added (titrated) various solutions thereto to determine the conditions and substances conducive to the formation of aggregates (i.e., dentinal plugs). Aggregation was determined by means of measurement of the absorbance with a spectrophotometer.

SMILES	Percent Reduction in Hydraulic Conductance ([1]; 0 minutes after exposure) [%]	Percent Reduction in Hydraulic Conductance ([1]; 15 minutes after exposure) [%]	Percent Reduction in Hydraulic Conductance ([1]; 30 minutes after exposure) [%]	Percent Reduction in Hydraulic Conductance ([1]; 45 minutes after exposure) [%]	Percent Reduction in Hydraulic Conductance ([1]; 60 minutes after exposure) [%]	Percent Reduction in Hydraulic Conductance ([1]; 75 minutes after exposure) [%]	Percent Reduction in Hydraulic Conductance ([1]; 90 minutes after exposure) [%]	Hydraulic conductance, effect in words [1]	Aggregation (deposit formation) of dentinal fluid constituents [2]
O=C([O-])[O-].[Ca+2] [calcium carbonate]	0	−18.5	−12.3	−5.5	−4.1	5.5	5.5	much smaller effects	not sufficient to produce deposit formation
N=C(N)NCCC[C@H](N)C(=O)O.O=C(O)O [arginine bicarbonate]	0	11.7	15.6	14.4	14.5	16.1	16.1	much smaller effects	aggregation of dentinal fluid constituents occurred
[Na+].[OH-] [sodium hydroxide]									nor could one induce deposition
O=C([O-])O.[Na+] [sodium bicarbonate]	0	−10.6	−1.0	7.2	11.5	15.9	19.7		nor could one induce deposition
